Data from patent US5024994A, “Renin inhibitors IV” (Warner-Lambert Company, priority 1988, dated 1991).
Non-standard residues stand in square brackets, D forms with d. Residues, ends and D or L forms follow the SMILES beside them. *: point of attachment. Arg(NO2) = N=C(NCCC[C@H](N)C(=O)O)N[N+](=O)[O-]; Sta = CC(C)C[C@H](N)[C@@H](O)CC(=O)O; Boc = CC(C)(C)OC(=O)*; NHBn = c1ccc(CN*)cc1

What follows are molecules tested against T1, renin (Homo sapiens, UniProt P00797) (assay: in vitro renin inhibitory activity, radioimmunoassay for angiotensin I). Conditions: not given.
T1 sequence (P00797 67-406): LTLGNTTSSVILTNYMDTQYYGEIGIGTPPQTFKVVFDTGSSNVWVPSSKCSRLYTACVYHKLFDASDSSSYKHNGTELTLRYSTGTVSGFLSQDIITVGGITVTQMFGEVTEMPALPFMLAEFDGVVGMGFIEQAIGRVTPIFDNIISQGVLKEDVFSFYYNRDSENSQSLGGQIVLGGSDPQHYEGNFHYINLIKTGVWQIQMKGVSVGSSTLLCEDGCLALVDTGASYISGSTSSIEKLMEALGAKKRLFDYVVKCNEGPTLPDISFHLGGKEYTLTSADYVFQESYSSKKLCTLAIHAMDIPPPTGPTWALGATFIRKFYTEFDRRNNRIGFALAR
Assay type: biochemical
Description: The effectiveness of the aforementioned compounds is determined by a test for in vitro renin inhibitory activity. This activity is determined by a standard radioimmunoassay for angiotensin I. In this assay the enzyme, renin, incubated for two hours at 37° in the presence of a substrate, angiotensinogen, generates the product, angiotensin I. Test compounds are added to the incubation mixture.

| Molecule | IC50 [nM] |
| --- | --- |
| CCC(C)CNC(=O)C[C@H](O)[C@H](CC(C)C)NC(=O)C(CC#CCNC(C)=O)NC(=O)C(Cc1cccc2ccccc12)Cc1cccc2ccccc12 (single isomer, unassigned) | 29 |
| CC(C)C[C@H](NC(=O)C[C@H](O)[C@H](CC(C)C)NC(=O)C(CCCC1CO1)NC(=O)C(Cc1cccc2ccccc12)Cc1cccc2ccccc12)C(=O)NCc1ccccc1 (single isomer, unassigned) [drawing 65] | 57 |
| CC[C@H](C)CNC(=O)C[C@H](O)[C@H](CC(C)C)NC(=O)[C@H](CCCCNS(=O)(=O)c1ccc(C)cc1)NC(=O)C(Cc1cccc2ccccc12)Cc1cccc2ccccc12 [Example 41, DNMA-LYS(TOS)-STA-NHCH2 CH(CH3)CH2 CH3] | 3000 |

Same assay, conditions: at 10^-6 molar concentration; read-out: percent inhibition of renin activity

| Molecule | inhibition at 1 µM [%] |
| --- | --- |
| CC(C)C[C@H](NC(=O)C[C@H](O)[C@H](CC(C)C)NC(=O)C(CCCC1CO1)NC(=O)C(Cc1cccc2ccccc12)Cc1cccc2ccccc12)C(=O)NCc1ccccc1 (single isomer, unassigned) [drawing 66] | 47 |

Same assay, conditions: read-out: IC50

| Molecule | IC50 [nM] |
| --- | --- |
| CC[C@H](C)CNC(=O)C[C@H](O)[C@H](CC(C)C)NC(=O)C(CC#N)NC(=O)[C@H](Cc1ccccc1)NC(=O)CC(C)C (stereo partly shown) | 570 |
| CCOC(=O)C(NC(=O)C(Cc1cccc2ccccc12)Cc1cccc2ccccc12)C(=O)N[C@@H](CC(C)C)[C@@H](O)CC(=O)NC[C@@H](C)CC (stereo partly shown) | 23 |
| CC[C@H](C)CNC(=O)C[C@H](O)[C@H](CC(C)C)NC(=O)C(CCCCCC(=O)NC)NC(=O)C(Cc1cccc2ccccc12)Cc1cccc2ccccc12 (stereo partly shown) | 1200 |
| CCC(C)CNC(=O)C[C@H](O)[C@H](CC(C)C)NC(=O)C(NC(=O)C(Cc1cccc2ccccc12)Cc1cccc2ccccc12)C(=O)OC(C)C (stereo partly shown) | 33 |
| CCC(C)CNC(=O)C[C@H](O)[C@H](CC(C)C)NC(=O)C(C/C=C\CNC(C)=O)NC(=O)C(Cc1cccc2ccccc12)Cc1cccc2ccccc12 (stereo partly shown) | 100 |
| CC(C)(C)OC(=O)NCC#CCC(NC(=O)C(Cc1cccc2ccccc12)Cc1cccc2ccccc12)C(=O)N[C@@H](CC1CCCCC1)[C@@H](O)CC(=O)NCCN1CCOCC1 (stereo partly shown) | 700 |
| O=CNCC#CCC(NC(=O)C(Cc1cccc2ccccc12)Cc1cccc2ccccc12)C(=O)N[C@@H](CC1CCCCC1)[C@@H](O)CC(=O)NCCN1CCOCC1 (stereo partly shown) | 8 |
| CC(=O)NCC#CCC(NC(=O)C(Cc1cccc2ccccc12)Cc1cccc2ccccc12)C(=O)N[C@@H](CC1CCCCC1)[C@@H](O)CC(=O)NCCN1CCOCC1 (stereo partly shown) | 8.6 |
| N=C(NCC#CCC(NC(=O)C(Cc1cccc2ccccc12)Cc1cccc2ccccc12)C(=O)N[C@@H](CC1CCCCC1)[C@@H](O)CC(=O)NCCN1CCOCC1)N[N+](=O)[O-] (stereo partly shown) | 12 |
| CNC(=S)NCC#CCC(NC(=O)C(Cc1cccc2ccccc12)Cc1cccc2ccccc12)C(=O)N[C@@H](CC1CCCCC1)[C@@H](O)CC(=O)NCCN1CCOCC1 (stereo partly shown) | 48 |
| CC[C@H](C)CNC(=O)C[C@H](O)[C@H](CC(C)C)NC(=O)[C@H](CCCCNC(=O)CSC)NC(=O)C(Cc1cccc2ccccc12)Cc1cccc2ccccc12 | 98 |
| CC[C@H](C)CNC(=O)C[C@H](O)[C@H](CC(C)C)NC(=O)[C@H](CCCCNC(=O)CS(C)(=O)=O)NC(=O)C(Cc1cccc2ccccc12)Cc1cccc2ccccc12 | 68 |
| CC[C@H](C)CNC(=O)C[C@H](O)[C@H](CC(C)C)NC(=O)[C@H](CCCCNC(=O)C[S+](C)[O-])NC(=O)C(Cc1cccc2ccccc12)Cc1cccc2ccccc12 (stereo partly shown) | 41 |
| CC[C@H](C)CNC(=O)C[C@H](O)[C@@H](NC(=O)[C@H](CCCCNC(=S)NC)NC(=O)C(Cc1cccc2ccccc12)Cc1cccc2ccccc12)C1CCCCC1 | 23 |
| CSC(=NC#N)NCCCC[C@H](NC(=O)C(CC(=O)N1CCOCC1)Cc1cccc2ccccc12)C(=O)N[C@@H](CC(C)C)[C@@H](O)CC(=O)NCCN1CCOCC1 (stereo partly shown) | 350 |
| CC(C)C[C@H](NC(=O)[C@H](CCCCNC(=N)N[N+](=O)[O-])NC(=O)C(CC(=O)N1CCOCC1)Cc1cccc2ccccc12)[C@@H](O)CC(=O)NCCN1CCOCC1 (stereo partly shown) | 420 |
| CNC(=S)NCCCC[C@H](NC(=O)C(CC(=O)N1CCOCC1)Cc1cccc2ccccc12)C(=O)N[C@@H](CC(C)C)[C@@H](O)CC(=O)NCCN1CCOCC1 (stereo partly shown) | 560 |
| CNC(=S)NCCCC[C@H](NC(=O)C(Cc1cccc2ccccc12)Cc1cccc2ccccc12)C(=O)N[C@@H](CC1CCCCC1)[C@@H](O)CC(=O)NCCN1CCOCC1 | 29 |
| CNC(=S)NCCCC[C@H](NC(=O)C(CC(=O)N1CCOCC1)Cc1cccc2ccccc12)C(=O)N[C@@H](CC1CCCCC1)[C@@H](O)CC(=O)NCCN1CCOCC1 (stereo partly shown) | 20 |
| CNC(=S)NCCCC[C@H](NC(=O)C(Cc1cccc2ccccc12)Cc1cccc2ccccc12)C(=O)N[C@@H](CC(C)C)[C@@H](O)CC(=O)NCCN1CCOCC1 | 120 |
| CC(C)C[C@H](NC(=O)[C@H](CCCCNC(=N)N[N+](=O)[O-])NC(=O)C(Cc1cccc2ccccc12)Cc1cccc2ccccc12)[C@@H](O)CC(=O)NCCN1CCOCC1 | 45 |
| CSC(=NC#N)NCCCC[C@H](NC(=O)C(Cc1cccc2ccccc12)Cc1cccc2ccccc12)C(=O)N[C@@H](CC(C)C)[C@@H](O)CC(=O)NCCN1CCOCC1 | 90 |
| CC[C@H](C)CNC(=O)C[C@H](O)[C@H](CC(C)C)NC(=O)[C@H](CCCCNC(=S)NC)NC(=O)C(Cc1ccccc1)Cc1cccc2ccccc12 (stereo partly shown) | 140 |
| CCOC(=O)C(NC(=O)C(Cc1cccc2ccccc12)Cc1cccc2ccccc12)C(=O)N[C@@H](CC(C)C)[C@@H](O)CC(=O)N[C@@H](CC(C)C)C(=O)NCc1ccccn1 (stereo partly shown) | 13 |
| C=CCCCC(NC(=O)C(Cc1cccc2ccccc12)Cc1cccc2ccccc12)C(=O)N[C@@H](CC(C)C)[C@@H](O)CC(=O)N[C@@H](CC(C)C)C(=O)NCc1ccccc1 (single isomer, unassigned; isomer a) [Example 48, DNMA-NHCH(CH2 CH2 CH2 CH=CH2)CO-STA-LEU-NHCH2 Ph (ISOMER A)] | 91 |
| C=CCCCC(NC(=O)C(Cc1cccc2ccccc12)Cc1cccc2ccccc12)C(=O)N[C@@H](CC(C)C)[C@@H](O)CC(=O)N[C@@H](CC(C)C)C(=O)NCc1ccccc1 (single isomer, unassigned; isomer b) [Example 49, DNMA-NHCH(CH2 CH2 CH2 CH=CH2)CO-STA-LEU-NHCH2 Ph (ISOMER B)] | 3500 |
| CC(C)C[C@H](NC(=O)C[C@H](O)[C@H](CC(C)C)NC(=O)[C@H](CCCNC(=N)N[N+](=O)[O-])NC(=O)[C@H](Cc1ccccc1)NC(=O)OC(C)(C)C)C(=O)NCc1ccccc1 [Example 1, BOC-PHE-ARG(NO2)-STA-LEU-NHCH2 Ph] (Boc-F[Arg(NO2)][Sta]L-NHBn) | 63 |
| CC(C)C[C@H](NC(=O)C[C@H](O)[C@H](CC(C)C)NC(=O)[C@H](CCCN1C(=O)c2ccccc2C1=O)NC(=O)[C@H](Cc1ccccc1)NC(=O)OC(C)(C)C)C(=O)NCc1ccccc1 [Example 4, BOC-PHE-ORN(PHT)-STA-LEU-NHCH2 Ph] | 910 |
| CC[C@H](C)CNC(=O)C[C@H](O)[C@H](CC(C)C)NC(=O)[C@H](CCCCNC(=O)OC)NC(=O)C(Cc1cccc2ccccc12)Cc1cccc2ccccc12 [Example 42, DNMA-LYS(CO2 CH3)-STA-NHCH2 CH(CH3)CH2 CH3] | 60 |

Same assay, conditions: renin incubated two hours at 37° with angiotensinogen; molar concentration causing 50% inhibition; read-out: IC50

| Molecule | IC50 [nM] |
| --- | --- |
| DNMA-LYS(Z)-STA-LEU-NHCH2 Ph | 2900 |
